Patent publication US9309301B2 (priority 2011, dated 2016)
Like-named read-outs stand apart in the source and are kept apart here. Blank lines part the entries; values can stand above or below the molecule they belong to. Square brackets hold non-standard residues; d marks the D form. Primed or numbered codes have the meaning given here. Ends that are not written are not given here. 40K‑TE PEG(4) = 40 kDa PEG bound to Cys thiol via thioether (from iodoacetyl-PEG); Aib = CC(C)(N)C(=O)O

How the values were obtained:
Format in all cases: cell-based
[1] = target: T1, GIP receptor (Homo sapiens, UniProt P48546); assay: in vitro agonist activity at the GIP receptor (cAMP induction, luciferase reporter, HEK293 cells); settings: CRE-luciferase reporter
T1 construct: expressed in transfected cells; host or cells: HEK293
T1 sequence (P48546 22-466): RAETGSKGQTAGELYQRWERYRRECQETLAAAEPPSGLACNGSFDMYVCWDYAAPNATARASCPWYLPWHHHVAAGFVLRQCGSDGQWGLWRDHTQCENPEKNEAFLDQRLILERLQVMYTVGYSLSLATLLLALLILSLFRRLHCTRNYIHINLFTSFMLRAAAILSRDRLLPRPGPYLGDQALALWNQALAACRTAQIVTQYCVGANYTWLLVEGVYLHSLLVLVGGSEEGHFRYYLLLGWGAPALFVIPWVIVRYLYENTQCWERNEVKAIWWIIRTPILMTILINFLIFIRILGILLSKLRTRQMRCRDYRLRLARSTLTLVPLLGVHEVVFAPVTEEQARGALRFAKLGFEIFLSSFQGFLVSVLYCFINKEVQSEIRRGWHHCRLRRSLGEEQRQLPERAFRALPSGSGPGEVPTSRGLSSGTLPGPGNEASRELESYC
Procedure: It is understood that a lower EC50 indicates higher activity or potency at the receptor. […] The ability of each peptide to induce cAMP was measured in a firefly luciferase-based reporter assay. […] At the end of the incubation, 100 μL of LucLite luminescence substrate reagent (Perkin Elmer, Wellesley, Mass.) were added to each well. […] In some instances, the in vitro agonist activity at the GIP receptor was also tested.

[2] = target: T2, GLP-1 receptor (Homo sapiens, UniProt P43220); assay: cAMP induction, firefly luciferase reporter assay in HEK293 cells co-transfected with GLP-1 receptor
T2 construct: expressed in transfected cells; host or cells: HEK293
Procedure: (§1) The ability of each peptide to induce cAMP was measured in a firefly luciferase-based reporter assay. […] At the end of the incubation, 100 μL of LucLite luminescence substrate reagent (Perkin Elmer, Wellesley, Mass.) were added to each well. […] In some instances, the in vitro agonist activity at the GIP receptor was also tested.

[3] = target: T3, glucagon receptor (Homo sapiens, UniProt P47871); assay: cAMP induction, firefly luciferase reporter assay in HEK293 cells co-transfected with glucagon receptor
T3 construct: expressed in transfected cells; host or cells: HEK293
Procedure: as §1

[4] = CRE-luciferase reporter, 5 hours incubation
[5] = read-out: EC50 (nM) at GLP-1 receptor, CRE-luciferase reporter, 5 hours incubation
[6] = read-out: EC50 (nM) at glucagon receptor, CRE-luciferase reporter, 5 hours incubation

T3 sequence (P47871 26-477, species assumed): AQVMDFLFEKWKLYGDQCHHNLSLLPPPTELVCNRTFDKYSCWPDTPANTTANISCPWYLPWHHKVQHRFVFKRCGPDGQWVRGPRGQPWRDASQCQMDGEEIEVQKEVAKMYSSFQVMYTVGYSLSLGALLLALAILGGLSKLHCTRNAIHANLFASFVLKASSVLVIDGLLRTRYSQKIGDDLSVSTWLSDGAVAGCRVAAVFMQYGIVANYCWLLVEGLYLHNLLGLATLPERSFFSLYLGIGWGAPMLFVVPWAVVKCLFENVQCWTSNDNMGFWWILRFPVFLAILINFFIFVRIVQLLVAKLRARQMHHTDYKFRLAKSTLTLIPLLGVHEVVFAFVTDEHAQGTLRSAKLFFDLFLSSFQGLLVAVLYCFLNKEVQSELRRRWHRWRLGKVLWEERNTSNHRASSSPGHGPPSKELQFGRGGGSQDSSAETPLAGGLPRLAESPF
T2 sequence (P43220 24-463): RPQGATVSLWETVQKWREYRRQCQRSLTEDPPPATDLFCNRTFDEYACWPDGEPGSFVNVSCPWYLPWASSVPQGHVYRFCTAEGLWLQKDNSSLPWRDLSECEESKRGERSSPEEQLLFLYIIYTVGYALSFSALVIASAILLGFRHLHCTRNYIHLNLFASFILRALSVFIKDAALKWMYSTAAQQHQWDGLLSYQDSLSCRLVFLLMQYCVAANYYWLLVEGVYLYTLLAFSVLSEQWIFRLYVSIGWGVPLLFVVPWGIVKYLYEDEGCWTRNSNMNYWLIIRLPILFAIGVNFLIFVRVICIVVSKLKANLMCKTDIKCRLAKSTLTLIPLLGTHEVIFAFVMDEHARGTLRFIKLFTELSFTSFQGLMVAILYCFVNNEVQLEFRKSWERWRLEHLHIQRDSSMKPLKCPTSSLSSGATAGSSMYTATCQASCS

EC50 (nM) at GIP receptor [1]: no activity
Molecule: 45 (H[Aib]QGTFTSDYSKYLDEKRA[Aib]EFVC(40K‑TE PEG(4))WLLDT-OH) [compound 45]

Molecule: CC(C)C[C@H](NC(=O)[C@H](CC(C)C)NC(=O)[C@H](Cc1c[nH]c2ccccc12)NC(=O)[C@H](CCC(N)=O)NC(=O)[C@@H](NC(=O)[C@H](Cc1ccccc1)NC(=O)[C@H](CC(=O)O)NC(=O)[C@H](CCC(N)=O)NC(=O)[C@H](C)NC(=O)[C@H](C)NC(=O)[C@H](CCCNC(=N)N)NC(=O)[C@H](CCC(=O)O)NC(=O)[C@H](CC(=O)O)NC(=O)[C@H](CC(C)C)NC(=O)[C@H](Cc1ccc(O)cc1)NC(=O)[C@H](CCCCN)NC(=O)[C@H](CO)NC(=O)[C@H](CCCCNC(=O)CCC(=O)c1ccccc1)NC(=O)[C@H](CC(=O)O)NC(=O)[C@H](CO)NC(=O)[C@@H](NC(=O)[C@H](Cc1ccccc1)NC(=O)[C@@H](NC(=O)CNC(=O)[C@H](CCC(N)=O)NC(=O)[C@@H](CO)NC(=O)[C@@H](N)Cc1c[nH]cn1)[C@@H](C)O)[C@@H](C)O)C(C)C)C(=O)N[C@@H](CC(=O)O)C(=O)NCC(=O)NCC(=O)N1CCC[C@H]1C(=O)N[C@@H](CO)C(=O)N[C@@H](CO)C(=O)NCC(=O)N[C@@H](C)C(=O)N1CCC[C@H]1C(=O)N1CCC[C@H]1C(=O)N1CCC[C@H]1C(=O)N[C@@H](CO)C(N)=O [compound 49]
EC50 [2, 4]: 0.01 nM | EC50 [3, 4]: 0.063 nM

Molecule: 47 (H[Aib]QGTFTSDYSKYLDEKRA[Aib]EFVC(PEG 40 kDa)WLLDGGPSSGAPPPS-NH2) [compound 47]
EC50 (nM) at GIP receptor [1]: no activity

EC50 [1]: 2.82 nM
Molecule: CCCCCCCCCCCCCCCC(=O)N[C@@H](CCC(=O)NCCCC[C@H](NC(=O)[C@H](CC(=O)O)NC(=O)[C@H](CO)NC(=O)[C@@H](NC(=O)[C@H](Cc1ccccc1)NC(=O)[C@@H](NC(=O)CNC(=O)[C@H](CCC(N)=O)NC(=O)[C@@H](CO)NC(=O)[C@@H](N)Cc1c[nH]cn1)[C@@H](C)O)[C@@H](C)O)C(=O)N[C@@H](CO)C(=O)N[C@@H](CCCCN)C(=O)N[C@@H](Cc1ccc(O)cc1)C(=O)N[C@@H](CC(C)C)C(=O)N[C@@H](CC(=O)O)C(=O)N[C@@H](CCC(=O)O)C(=O)N[C@@H](CCC(N)=O)C(=O)N[C@@H](C)C(=O)N[C@@H](C)C(=O)N[C@@H](CCCCN)C(=O)N[C@@H](CCC(=O)O)C(=O)N[C@@H](Cc1ccccc1)C(=O)N[C@H](C(=O)N[C@@H](CS)C(=O)N[C@@H](Cc1c[nH]c2ccccc12)C(=O)N[C@@H](CC(C)C)C(=O)N[C@@H](CC(C)C)C(=O)N[C@@H](CC(=O)O)C(=O)N[C@H](C(N)=O)[C@@H](C)O)[C@@H](C)CC)C(=O)O [compound 64]

EC50 [1]: 0.812 nM | EC50 [2, 5]: 0.002 nM | EC50 [3, 6]: 0.004 nM
Molecule: CCCCCCCCCCCCCCCC(=O)N[C@@H](CCC(=O)NCCCC[C@H](NC(=O)[C@H](CC(=O)O)NC(=O)[C@H](CO)NC(=O)[C@@H](NC(=O)[C@H](Cc1ccccc1)NC(=O)[C@@H](NC(=O)CNC(=O)[C@H](CCC(N)=O)NC(=O)[C@@H](CO)NC(=O)[C@@H](N)Cc1c[nH]cn1)[C@@H](C)O)[C@@H](C)O)C(=O)N[C@@H](CO)C(=O)N[C@@H](CCCCN)C(=O)N[C@@H](Cc1ccc(O)cc1)C(=O)N[C@@H](CC(C)C)C(=O)N[C@@H](CC(=O)O)C(=O)N[C@@H](CCC(=O)O)C(=O)N[C@@H](CCCNC(=N)N)C(=O)N[C@@H](C)C(=O)N[C@@H](C)C(=O)N[C@@H](CCC(N)=O)C(=O)N[C@@H](CC(=O)O)C(=O)N[C@@H](Cc1ccccc1)C(=O)N[C@H](C(=O)N[C@@H](CCC(N)=O)C(=O)N[C@@H](Cc1c[nH]c2ccccc12)C(=O)N[C@@H](CC(C)C)C(=O)N[C@@H](CC(C)C)C(=O)N[C@@H](CC(=O)O)C(=O)NCC(=O)N[C@@H](CCCNC(=N)N)C(=O)NCC(N)=O)C(C)C)C(=O)O [compound 19]

EC50 [1]: 47.1 nM
Molecule: CCCCCCCCCCCCCCCC(=O)N[C@@H](CCC(=O)NCCCC[C@H](NC(=O)[C@H](CC(=O)O)NC(=O)[C@H](CO)NC(=O)[C@@H](NC(=O)[C@H](Cc1ccccc1)NC(=O)[C@@H](NC(=O)CNC(=O)[C@H](CCC(N)=O)NC(=O)[C@@H](CO)NC(=O)[C@@H](N)Cc1c[nH]cn1)[C@@H](C)O)[C@@H](C)O)C(=O)N[C@@H](CO)C(=O)N[C@@H](CCCCN)C(=O)N[C@@H](Cc1ccc(O)cc1)C(=O)N[C@@H](CC(C)C)C(=O)N[C@@H](CC(=O)O)C(=O)N[C@@H](CCC(=O)O)C(=O)N[C@@H](CCC(N)=O)C(=O)N[C@@H](C)C(=O)N[C@@H](C)C(=O)N[C@@H](CCCCN)C(=O)N[C@@H](CCC(=O)O)C(=O)N[C@@H](Cc1ccccc1)C(=O)N[C@H](C(=O)N[C@@H](CS)C(=O)N[C@@H](Cc1c[nH]c2ccccc12)C(=O)N[C@@H](CC(C)C)C(=O)N[C@@H](CC(C)C)C(=O)N[C@@H](CC(=O)O)C(=O)N[C@H](C(=O)N[C@@H](CCC(=O)O)C(N)=O)[C@@H](C)O)[C@@H](C)CC)C(=O)O [compound 65]

Molecule: 51 (H[Aib]QGTFTSDYSKYLDEKRA[Aib]EFVC(40K‑TE PEG(4))WLL[Aib]GGPSSGAPPPS-NH2) [compound 51]
EC50 (nM) at GIP receptor [1]: no activity

EC50 [2, 5]: 0.039 nM | EC50 [3, 6]: 0.026 nM
Molecule: CC(C)C[C@H](NC(=O)[C@H](Cc1ccc(O)cc1)NC(=O)[C@H](CCCCN)NC(=O)[C@H](CO)NC(=O)[C@H](CCCCNC(=O)CC[C@H](NC(=O)CC12CC3CC(CC(C3)C1)C2)C(=O)O)NC(=O)[C@H](CC(=O)O)NC(=O)[C@H](CO)NC(=O)[C@@H](NC(=O)[C@H](Cc1ccccc1)NC(=O)[C@@H](NC(=O)CNC(=O)[C@H](CCC(N)=O)NC(=O)[C@@H](CO)NC(=O)[C@@H](N)Cc1c[nH]cn1)[C@@H](C)O)[C@@H](C)O)C(=O)N[C@@H](CC(=O)O)C(=O)N[C@@H](CCC(=O)O)C(=O)N[C@@H](CCCNC(=N)N)C(=O)N[C@@H](C)C(=O)N[C@@H](C)C(=O)N[C@@H](CCC(N)=O)C(=O)N[C@@H](CC(=O)O)C(=O)N[C@@H](Cc1ccccc1)C(=O)N[C@H](C(=O)N[C@@H](CCC(N)=O)C(=O)N[C@@H](Cc1c[nH]c2ccccc12)C(=O)N[C@@H](CC(C)C)C(=O)N[C@@H](CC(C)C)C(=O)N[C@@H](CC(=O)O)C(=O)N[C@H](C(N)=O)[C@@H](C)O)C(C)C [compound 48]

EC50 (nM) at GIP receptor [1]: no activity
Molecule: 52 (H[Aib]QGTFTSDYSKYLDEK[Aib]AKEFVC(PEG 40 kDa)WLLDT-NH2) [compound 52]

EC50 (nM) at GIP receptor [1]: no activity
Molecule: 13 (H[Aib]QGTFTSDYSKYLDEKRA[Aib]EFVC(PEG 40 kDa)WLLDT-NH2) [compound 13]

Molecule: 46 (H[Aib]QGTFTSDYSKYLD[Aib]KRA[Aib]EFVC(PEG 40 kDa)WLLDGGPSSGAPPPS-NH2) [compound 46]
EC50 (nM) at GIP receptor [1]: no activity

EC50 (nM) at GIP receptor [1]: no activity
Molecule: 41 (H[Aib]QGTFTSDYSKYLDEKRA[Aib]EFVC(PEG 40 kDa)WLL[Aib]T-NH2) [compound 41]

EC50 (nM) at GIP receptor [1]: no activity
Molecule: 38 (H[Aib]QGTFTSDYSKYLD[Aib]KRA[Aib]EFVC(PEG 40 kDa)WLLDT-NH2) [compound 38]
